Experimental data published in paper PMC7912796, “Design, Synthesis, Anticancer Activity, and Solid Lipid Nanoparticle Formulation of Indole- and Benzimidazole-Based Compounds as Pro-Apoptotic Agents Targeting Bcl-2 Protein” (Pharmaceuticals, 2021).

Assays:
[1] = test system: MDA-MB-231/breast cancer cell line; test: Cell cycle analysis, propidium iodide flow cytometry; format: cell-based, human; settings: 13 µM, 48 h
Excerpt: (§1) Using flow cytometry, apoptosis rate analysis was proceeded through staining the cell surface-translocating phosphatidylserine with Annexin-V fluorescent conjugate, the calcium-dependent phospholipid binding protein [32]. However, cell cycle analysis was achieved using propidium iodine fluorescent dye to stoichiometrically stain cell DNA contents allowing quantitation and identification of all cell phase rates; G0-G1, S, G2/M, and pre-G1 [33, 34]. […] For identifying the mode of cell death promoted by 8b within MDA-MB-231/breast cancer cells, apoptosis rate analysis was performed following 48 h exposure time. […] Moreover, the average proportion of Annexin-V stained positive cells (total apoptotic cells) elevated from 1.72% within untreated cells to 18.93% in treated ones (p < 0.001). […] The above provided findings are supported by the previous cell cycle analysis confirming the potentiality of 8b as promising anticancer agent.
Apoptotic assay and cell cycle analysis were proceeded according to previous literatures. […] Following incubation, MDA-MB-231 cells were trypsinized, harvested, and fixed according to information cited within Annexin® V-FITC Detection Kit (Cat.#: K101-25, BioVision^TM, Milpitas, CA, USA), for quantifying cell’s DNA contents being treated with 8b relative to control sample using propidium iodide stain (Cat.#: ab139418; Abcam^TM, Cambridge, MA, USA). […]

[2] = test system: MDA-MB-231/breast cancer cell line; test: Apoptosis rate analysis, Annexin-V/FACS; format: cell-based, human; settings: 13 µM, 48 h
Excerpt: as §1
Apoptotic assay and cell cycle analysis were proceeded according to previous literatures. In brief, cells were planted in 1.0 × 10^6 cells/flask density for 24 h. Subsequently, 8b was added at its IC50 value and incubated for 48 h. Following incubation, MDA-MB-231 cells were trypsinized, harvested, and fixed according to information cited within Annexin® V-FITC Detection Kit (Cat.#: K101-25, BioVision^TM, Milpitas, CA, USA), for quantifying cell’s DNA contents being treated with 8b relative to control sample using propidium iodide stain (Cat.#: ab139418; Abcam^TM, Cambridge, MA, USA). Finally, flow cytometry analysis was done using BD-FACSCalibur® cell analyzer platform (Becton Dickinson-Biosciences-SG^TM, Singapore, Thailand) to estimate which cell cycle phase, the treated cells would be arrested in, as well as computing the percentage of apoptotic cells.

class-III β-tubulin = test: ELISA protein level; format: cell-based, human; settings: 48 h
Protocol: Dissection of the compound’s proapoptotic activity was proceeded through gene expression analysis for key genes, controlling apoptosis pathway, as well as protein level determination. Following 8b treatment for 48 h, alterations within MDA-MB-231/breast cancer cell expression of Bcl-2, Bax, caspase-3, -8, and -9 genes, as well as cytochrome c and class-III β-tubulin proteins levels were determined using real-time polymerase chain reaction (RT-PCR) or ELISA technique, respectively. Typically, Bcl-2, Bax, caspases, and cytochrome c proteins contributes within the regulation of apoptotic signaling. Acting as apoptotic activator (Bax) or inhibitor (Bcl-2), the Bcl-2 family proteins play their significant role in apoptosis. The caspases family are cysteine proteases being classified as either executioners; caspase-3, -6, or -7 or initiators; caspase-8 and -9 [36]. Regrading caspase-8, its activation is proceeded through extrinsic death-receptor dependent apoptotic pathway, while, caspase-9 activation is within the event of intrinsic mitochondrial cytochrome c leakage. Additionally, participation of activated caspase-3 is to be essential for caspase-8 activation. […]

[3] = test system: MDCK/kidney non-cancerous cells; test: MTT-cell proliferation assay on non-cancerous cell line; format: cell-based; settings: 48 h drug exposure, mean ± SEM
Excerpt: (§2) The potential anti-cancer activity of all fourteen final synthesized compounds was investigated through MTT cytotoxic assay against two different human solid cancerous cell lines; A549/lung and MDA-MB-231/breast adenocarcinoma. The adopted cell-proliferation assay assessed % cell viability in relation to the reducing activity of cellular NADPH-dependent cellular oxidoreductases on tetrazolium dye, MTT [2,5-diphenyl-3-(4,5-dimethylthiazol-2-yl)tetrazolium bromide salt], for furnishing an easily quantified insoluble chromogenic formazan. For each drug concentration, 0.1, 1, 10, and 100 μM, the % cell-viability was estimated relative to negative control following a complete 48 h of drug treatment. Both 5-fluorouracil (5-FU) and doxorubicin (DOX) were set as positive index comparators. Moreover, the safety profile of the synthesized compounds was further investigated by examining their in-vitro cytotoxicity on non-cancerous cell line; MDCK/kidney cells.
(§3) Evaluating the cytotoxicity of tested compounds on two cancer cell lines (A549/lung and MDA-MB-231/breast adenocarcinoma) and non-cancerous (MDCK/kidney cells) was performed while adopting the formerly described method with small alterations. Cancer cell lines were propagated within Dulbecco’s Modified Eagle Medium-High Glucose (Cat.#: P0103; DMEM_High Glucose with Na.Pyruvate and stable Glutamine, Biowest^TM, Nuaillé, France), while MDA-MB-231 cells were propagated within RPMI-1640 L-Glutamine medium (Cat.#:12-604F; Lonza-Verviers SPRL^TM, Verviers, Belgium). The culturing media were supplemented via 1% antibiotic-antimycotic 100X (Cat.#: L0010; Biowest^TM, Nuaillé, France) and 10% fetal bovine serum (FBS) (Cat.#: EU-000-H; Seralab^TM, West Sussex, UK). Cells were seeded as triplicates within 96-well plate, at 1 × 10^4 cells per well density, after being counted and viability checked using the trypan blue staining solution (Cat.# ab233465; Abcam^TM, Cambridge, MA, USA). Seeded cells were permitted to adhere for 24 h under 5% CO2 and at 37 °C incubating conditions. The assigned compounds were dissolved in 500 µL DMSO affording the stock solution (100 mM) being ready for more diluting within the whole medium to obtain the compound’s final concentrations; 0.1, 1, 10, 100 µM for cell treatments. […] Following 24 h compound-cell treatment, the medium was substituted by fresh one and cells were permitted to develop for 48 h. At four hours prior the end of incubation, 10 μL MTT Sigma-Aldrich^TM (5 mg/mL in PBS 1X without magnesium and calcium; Cat.# 17-516F, Lonza-Verviers^TM, Basel, Switzerland) were added to all wells. Following the complete 48 h incubation, 100 μL DMSO was all added to all wells where they were subsequently centrifuged at 4000 rpm for 5 min allowing the formazan crystals of formazan to precipitate. Color was established and intensities were recorded at 490 nm using Synergy-Neo2® Hybrid MultiMode Plate Reader (BioTek^TM, Winooski, VT, USA), while subtracting the multi-well plates background absorbance at 690 nm. Percentage cell viability was estimated using the subsequent formula: % cell-viability = (average absorbance of treated wells/average absorbance of controls) × 100.

[4] = test system: MDA-MB-231/breast cancer cells; test: MTT-cell proliferation assay; format: cell-based, human; settings: 48 h drug exposure, mean of three experiments ± SEM
Excerpt: as §2, §3

[5] = test system: A549/lung adenocarcinoma cells; test: MTT-cell proliferation assay; format: cell-based, human; settings: Homo sapiens, A549, 48 h drug exposure, mean of three experiments ± SEM
Excerpt: as §2, §3

- IC50 [4]: 12.7 ± 2.48 µM
- IC50 ([4]; Homo sapiens, MDA-MB-231, 48 h): ~13 µM
- IC50 [5]: 23.1 ± 1.45 µM
SMILES: CCCc1ccc(-c2nn(-c3ccccc3)cc2C=NNC(=O)c2cc3ccccc3[nH]2)cc1 [Compound 8b, N′-((1-phenyl-3-(4-propylphenyl)-1H-pyrazol-4-yl)methylene)-1H-indole-2-carbohydrazide]
- cell population at pre-G1 stage [1]: 1.72%
- cell population at G2/M stage ([1]; untreated 6.15%): 25.32%
- influence on necrosis [2]: no influence on the necrosis
- early apoptotic cell population (LR quadrant) ([2]; quadrant assignment assumed): 5.09%
- late apoptotic cell population (UR quadrant) ([2]; quadrant assignment assumed): 12.02%
- necrotic cell population (UL quadrant) ([2]; quadrant assignment assumed): 1.82%
- Annexin-V stained positive cells (total apoptotic cells) ([2]; untreated 1.72%): 18.93%
- class-III β-tubulin level (class-III β-tubulin; 13 μM, MDA-MB-231, control 0.73 ng/mL): 0.23 ng/mL
- inhibition at 13 µM (class-III β-tubulin; Homo sapiens, MDA-MB-231, vs control): 68.4%
- IC50 [3]: 92.75 ± 0.43 µM
- IC50 ([3]; Canis lupus familiaris, MDCK, 48 h): 92 µM
